We go through 41 compounds from patent US20110183991A1, “5HT7 RECEPTOR LIGANDS AND COMPOSITIONS COMPRISING THE SAME” (LABORATORIOS DEL DR. ESTEVE, S.A., priority 2008, published 2011).

Like-named read-outs stand apart in the source and are kept apart here.

The assay addresses T1, Cloned Human Serotonin Receptor, Subtype 7 (h5HT7), expressed in CHO cells (Homo sapiens, UniProt P34969).
T1 construct: purchased PerkinElmer 6120512; host or cells: CHO cells
Put plainly: Radioligand binding assay, [125I]LSD, cloned human 5HT7 receptor on Flashplate. The note with it: for inhibition at 1 µM: read-out: %-Inhib. (10^−6 M). How it is done:
The protocol assay was essentially the recommended protocol in the Technical Data Sheet by PerkinEmer Life and Analytical Sciences. The Mass membrane protein/well was typically 12 μg and the Receptor/well was about 9-10 fmoles. The Flashplate were let equilibrate at room temperature for one hour before the addition of the components of the assay mixture. The binding buffer was: 50 mM Tris-HCl, pH 7.4, containing 10 mM MgCl2, 0.5 mM EDTA and 0.5% BSA. […] Nonspecific binding was determined with 50 μM of Clozapine. The assay volume was 25 μl. TopSeal-A were applied onto Flashplate microplates and they were incubated at room temperature for 240 minutes in darkness.

Setting [1] is: compound at 10^−6 M, radioligand [125I]LSD 0.82 nM.
[2] abbreviates: 5HT7 binding experiments on the screening selection.

As a reminder, the IC50 is the midpoint of a concentration-inhibition curve. Low values mean higher potency, high ones lower potency.

T1 sequence (P34969 whole entry): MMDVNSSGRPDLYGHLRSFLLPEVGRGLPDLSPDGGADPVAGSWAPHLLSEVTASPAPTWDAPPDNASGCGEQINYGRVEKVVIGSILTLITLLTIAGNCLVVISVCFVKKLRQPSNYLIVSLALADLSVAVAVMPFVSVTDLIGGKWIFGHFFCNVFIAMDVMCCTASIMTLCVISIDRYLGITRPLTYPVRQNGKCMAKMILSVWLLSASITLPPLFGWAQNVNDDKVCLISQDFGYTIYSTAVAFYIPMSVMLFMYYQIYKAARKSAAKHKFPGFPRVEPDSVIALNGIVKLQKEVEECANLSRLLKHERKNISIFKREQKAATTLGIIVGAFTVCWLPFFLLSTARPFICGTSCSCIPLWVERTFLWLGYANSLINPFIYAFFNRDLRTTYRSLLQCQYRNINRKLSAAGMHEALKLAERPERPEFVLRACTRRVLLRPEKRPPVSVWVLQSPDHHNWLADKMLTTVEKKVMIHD

As to `Clc1ccc(CN2CCN(c3cccc4[nH]ccc34)CC2)cn1` [Ex 25, 4-(4-((6-chloropyridin-3-yl)methyl)piperazin-1-yl)-1H-indole], the IC50 is 328 nM and the inhibition at 1 µM was found to be 66.8%.
`O=[N+]([O-])c1ccc(N2CCN(Cc3cccnc3Nc3ccccc3)CC2)cc1` [Ex 26, 3-((4-(4-nitrophenyl)piperazin-1-yl)methyl)-N-phenylpyridin-2-amine]: the inhibition at 1 µM under setting [1] was -4.6%.
As to `c1ccc2[nH]c(CN3CCN(c4cccc5[nH]ccc45)CC3)nc2c1` [Ex 28, 2-((4-(1H-indol-4-yl)piperazin-1-yl)methyl)-1H-benzo[d]imidazole], under setting [1], the inhibition at 1 µM stood at 28.8%.
Regarding `O=c1[nH]c2ccccc2n1C1CCN(CCOc2ccccc2)CC1` [compound i, 1-(1-(2-phenoxyethyl)piperidin-4-yl)-1H-benzo[d]imidazol-2(3H)-one], under setting [2], the “affinity for the 5HT7 receptor (in words)” value (“affinity” below) is recorded as “good affinity”.
As to `Cc1ccc(N2CCN(Cc3ccc(OC4CCCCO4)cc3)CC2)c(C)c1` (centres unmarked) [Ex 13, 1-(2,4-dimethylphenyl)-4-(4-(tetrahydro-2H-pyran-2-yloxy)benzyl)piperazine], the inhibition at 1 µM under setting [1] came out at 12.1%.
In the case of `COc1ccc(C(C)C)cc1CN1CCN(C(=O)c2ccc(Br)cc2)CC1` [Ex 9, (4-bromophenyl)(4-(5-isopropyl-2-methoxybenzyl)piperazin-1-yl)methanone], the inhibition at 1 µM under setting [1] was 68.1%. Moreover, the IC50 (radioligand [125I]LSD 0.82 nM) was found to be 1790 nM.
Regarding `COc1ccc(C(C)C)cc1CN1CCN(C(=O)c2ccsc2)CC1` [Ex 8, (4-(5-isopropyl-2-methoxybenzyl)piperazin-1-yl)(thiophen-3-yl)methanone], under setting [1], the inhibition at 1 µM stood at 30.5%.
Same read-out and setting: in the case of `Cc1cc(NC(=O)CN2CCN(c3cccc4[nH]ccc34)CC2)n(C)n1` [Ex 5, 2-(4-(1H-indol-4-yl)piperazin-1-yl)-N-(1,3-dimethyl-1H-pyrazol-5-yl)acetamide] it was 14.3%; in that of `FC(F)(F)c1cccc(N2CCN(Cc3cccnc3Nc3ccccc3)CC2)c1` [Ex 14, N-phenyl-3-((4-(3-(trifluoromethyl)phenyl)piperazin-1-yl)methyl)pyridin-2-amine], 19.5%.
Consider `COc1ccccc1N1CCN(CCC(=O)Nc2ccc3c(c2)CCC3)CC1` [f, N-(2,3-dihydro-1H-inden-5-yl)-3-(4-(2-methoxyphenyl)piperazin-1-yl)propanamide], for which the “affinity” value under setting [2] is reported as “good affinity”.
For the compound `c1ccc(CN2CCN(c3cccc4[nH]ccc34)CC2)cc1` [Ex 30, 4-(4-benzylpiperazin-1-yl)-1H-indole], under setting [1], the inhibition at 1 µM turned out to be 83.1%. Where the note is “radioligand [125I]LSD 0.82 nM”, this compound came in with an IC50 of 339 nM.
For `CCOc1ccccc1N1CCN(Cc2c[nH]c3ccccc23)CC1` [c, 3-((4-(2-ethoxyphenyl)piperazin-1-yl)methyl)-1H-indole], the “affinity” value is given as “good affinity”.
In the case of `Clc1ccc(CN2CCN(c3cccc4[nH]ccc34)CC2)cc1Cl` [Ex 34, 4-(4-(3,4-dichlorobenzyl)piperazin-1-yl)-1H-indole], the inhibition at 1 µM came out at 54.7%. For the same compound, under “radioligand [125I]LSD 0.82 nM”, the half-inhibitory concentration (IC50) was 1240 nM.
As to `COc1ccc(CN2CCN(c3cccc(C(F)(F)F)c3)CC2)c(OC)n1` [Ex 21, 1-((2,6-dimethoxypyridin-3-yl)methyl)-4-(3-(trifluoromethyl)phenyl)piperazine], the inhibition at 1 µM under setting [1] came to 9.4%.
In the case of `CC(C)Oc1ccccc1N1CCN(Cc2ccc(Cl)nc2)CC1` [b, 1-((6-chloropyridin-3-yl)methyl)-4-(2-isopropoxyphenyl)piperazine], the “affinity” value under setting [2] was “good affinity”.
Regarding `Cn1cc(CN2CCN(c3ccccc3)CC2)c2ccccc21` [Ex 1, 1-methyl-3-((4-phenylpiperazin-1-yl)methyl)-1H-indole], the inhibition at 1 µM under setting [1] is 22.3%.
In the case of `c1ccc(OCCN2CCN(c3cccc4[nH]ccc34)CC2)cc1` [Ex 3, 4-(4-(2-phenoxyethyl)piperazin-1-yl)-1H-indole], under setting [1], the inhibition at 1 µM was 53.7%. Further, where the note is “radioligand [125I]LSD 0.82 nM”, the IC50 came to 1940 nM.
With `Fc1ccccc1CN1CCN(c2cccc3[nH]ccc23)CC1` [Ex 31, 4-(4-(2-fluorobenzyl)piperazin-1-yl)-1H-indole], the inhibition at 1 µM amounted to 82.6%. The compound also registered an IC50 (radioligand [125I]LSD 0.82 nM) of 460 nM.
For the compound `CN(C)S(=O)(=O)c1ccc2[nH]cc(CCN)c2c1` [compound a, 3-(2-aminoethyl)-N,N-dimethyl-1H-indole-5-sulfonamide], the “affinity” value is “good affinity”.
As for `CC(C)Oc1ccccc1N1CCN(Cc2ccc(-n3ccnc3)cc2)CC1` [e, 1-(4-(1H-imidazol-1-yl)benzyl)-4-(2-isopropoxyphenyl)piperazine], the “affinity” value was “good affinity”.
Consider `COc1ccc(CN2CCN(c3ccc(Cl)cc3)CC2)c(OC)n1` [Ex 18, 1-(4-chlorophenyl)-4-((2,6-dimethoxypyridin-3-yl)methyl)piperazine], for which, under setting [1], the inhibition at 1 µM came to 12.3%.
Consider `Oc1cccc(N2CCN(Cc3ccc(OC(F)(F)F)cc3)CC2)c1` [Ex 2, 3-(4-(4-(trifluoromethoxy)benzyl)piperazin-1-yl)phenol], for which the inhibition at 1 µM under setting [1] was 15.1%.
Regarding `O=C(c1cccs1)C1CN2CCC1CC2` (centres unmarked) [l, quinuclidin-3-yl(thiophen-2-yl)methanone], the “affinity” value is on record as “good affinity”.
On to `COc1ccc(CN2CCN(c3ccc(OC)c(OC)c3)CC2)c(OC)n1` [Ex 12, 1-(3,4-dimethoxyphenyl)-4-((2,6-dimethoxypyridin-3-yl)methyl)piperazine], for which the inhibition at 1 µM under setting [1] is -0.3%.
Regarding `COc1ccccc1N1CCN(CCC(O)c2ccccc2)CC1` (centres unmarked) [d, 3-(4-(2-methoxyphenyl)piperazin-1-yl)-1-phenylpropan-1-ol], the “affinity” value under setting [2] is “good affinity”.
`Fc1cc2c(c(CN3CCN(C4CCc5ccccc5C4)CC3)c1)OCOC2` (centres unmarked) [Ex 4, 1-((6-fluoro-4H-benzo[d][1,3]dioxin-8-yl)methyl)-4-(1,2,3,4-tetrahydronaphthalen-2-yl)piperazine]: under setting [1], the inhibition at 1 µM came to 49%. Moreover, the half-inhibitory concentration (IC50) (radioligand [125I]LSD 0.82 nM) worked out at 2330 nM.
As for `c1ccc2cc(CN3CCN(c4cccc5[nH]ccc45)CC3)ccc2c1` [Ex 32, 4-(4-(naphthalen-2-ylmethyl)piperazin-1-yl)-1H-indole], the inhibition at 1 µM came to 78.3%. The same compound had a half-maximal inhibitory concentration (IC50) (radioligand [125I]LSD 0.82 nM) of 760 nM.
Regarding `c1cc(N2CCN(Cc3ccc(OC4CCCCO4)cc3)CC2)c2cc[nH]c2c1` (centres unmarked) [Ex 19, 4-(4-(4-(tetrahydro-2H-pyran-2-yloxy)benzyl)piperazin-1-yl)-1H-indole], under setting [1], the inhibition at 1 µM was found to be 59.5%. Under “radioligand [125I]LSD 0.82 nM”, this compound had an IC50 of 1140 nM.
For the compound `COc1ccc(C(C)C)cc1CN1CCN(c2ccc(C)cc2C)CC1` [Ex 24, 1-(2,4-dimethylphenyl)-4-(5-isopropyl-2-methoxybenzyl)piperazine], under setting [1], the inhibition at 1 µM was 41.6%.
Still for that read-out and setting: in the case of `Cc1ccc(N2CCN(Cc3ccc(Cl)nc3)CC2)c(C)c1` [Ex 10, 1-((6-chloropyridin-3-yl)methyl)-4-(2,4-dimethylphenyl)piperazine] it was 16.6%; in that of `CC[C@H](C)C(=O)N1CCN(Cc2cc(C(C)C)ccc2OC)CC1` [Ex 6, (S)-1-(4-(5-isopropyl-2-methoxybenzyl)piperazin-1-yl)-2-methylbutan-1-one], 15%.
For `Cc1cccc(-n2c(=O)c(CN3CCN(c4cccc5[nH]ccc45)CC3)cc3cccnc32)c1` [Ex 20, 3-((4-(1H-indol-4-yl)piperazin-1-yl)methyl)-1-m-tolyl-1,8-naphthyridin-2(1H)-one], the inhibition at 1 µM under setting [1] is 51.9%. The 50% inhibitory concentration (IC50) (radioligand [125I]LSD 0.82 nM) was 423 nM.
For `Clc1ccccc1CN1CCN(c2cccc3[nH]ccc23)CC1` [Ex 33, 4-(4-(2-chlorobenzyl)piperazin-1-yl)-1H-indole], the inhibition at 1 µM stood at 78.2%. Besides, the concentration for half-maximal inhibition (IC50) (radioligand [125I]LSD 0.82 nM) amounted to 223 nM.
Consider `Cn1cc(CN2CCN(c3cccc(C(F)(F)F)c3)CC2)c(=O)n(C)c1=O` [Ex 17, 1,3-dimethyl-5-((4-(3-(trifluoromethyl)phenyl)piperazin-1-yl)methyl)pyrimidine-2,4(1H,3H)-dione], for which the inhibition at 1 µM under setting [1] was 28.5%.
In the case of `COc1ccc(C(C)C)cc1CN1CCN(C(=O)Cc2c[nH]c3ccccc23)CC1` [Ex 11, 2-(1H-indol-3-yl)-1-(4-(5-isopropyl-2-methoxybenzyl)piperazin-1-yl)ethanone], the inhibition at 1 µM was 16.3%.
Regarding `COc1ccc(C(C)C)cc1CN1CCN(c2ncccn2)CC1` [Ex 27, 2-(4-(5-isopropyl-2-methoxybenzyl)piperazin-1-yl)pyrimidine], the inhibition at 1 µM under setting [1] is 48.9%.
On to `COc1ccc(C(C)C)cc1CN1CCN(c2ccc(Cl)cc2)CC1` [Ex 23, 1-(4-chlorophenyl)-4-(5-isopropyl-2-methoxybenzyl)piperazine], for which the inhibition at 1 µM under setting [1] was found to be 35.9%.
For `O=c1[nH]c2ccccc2n1C1=CCN(CCOc2ccccc2)CC1` [k, 1-(1-(2-phenoxyethyl)-1,2,3,6-tetrahydropyridin-4-yl)-1H-benzo[d]imidazol-2(3H)-one], the “affinity” value under setting [2] is reported as “good affinity”.
Consider `COc1ccc(CN2CCN(c3ccccc3OC(C)C)CC2)c(OC)n1` [Ex 15, 1-((2,6-dimethoxypyridin-3-yl)methyl)-4-(2-isopropoxyphenyl)piperazine], for which the IC50 worked out at 82.2 nM and the inhibition at 1 µM was found to be 92.2%.
For `COc1ccc(CN2CCN(c3ccc(C)cc3C)CC2)c(OC)n1` [Ex 16, 1-((2,6-dimethoxypyridin-3-yl)methyl)-4-(2,4-dimethylphenyl)piperazine], the inhibition at 1 µM under setting [1] was 8.8%.
As to `O=c1[nH]c2ccccc2n1C1=CCN(CCCOc2ccccc2)CC1` [j, 1-(1-(3-phenoxypropyl)-1,2,3,6-tetrahydropyridin-4-yl)-1H-benzo[d]imidazol-2(3H)-one], the “affinity” value is reported as “good affinity”.
